Source: patent US4931292A, “Method of preparing iron(III) phosphate compounds for iron fortification of food products” (EKA Nobel AB, priority 1986, dated 1990)
Entries after “also recorded” stand apart in the source; their conditions may differ.

Tests used:
[1] = Examination of bioavailability in humans: absorption of 55Fe-labelled iron compound and 59Fe-labelled native iron from iron-fortified buns; assay type: in vivo; conditions: for Absorption, Fortification: fortification iron (55Fe)
Experimental: The examination was carried out by the technique described in the above-mentioned paper by Hallberg et al.
The iron compound to be tested is labelled with radioactive iron, ^55 Fe, in the synthesis of the compound used. This iron is used to fortify flour from which buns are made by standard procedures, for example as follows: ______________________________________ Ingredients Parts by weight ______________________________________ wheat-flour 100 sugar 3.5 salt 1.0 yeast 6.5 water 83 iron source 6.5 ^- 10^-3 ______________________________________
The iron occurring naturally (native iron) in wheat-flour is labelled by adding tracer amounts of ^59 Fe-labelled iron(III)chloride. The buns are thus made of flour which is labelled with two different radioactive isotopes.
The ingredients are mixed, and the dough is allowed to rise for 30 minutes. After the usual kneading, the dough is placed in small aluminium baking tins where the dough pieces are allowed to rise for another 30 minutes. The dough pieces in the baking tins are subsequently baked at a temperature of 250° C. for 10 minutes
These double-labelled buns are served a group of test subjects, for breakfast with coffee, margarine and marmalade two successive mornings after a night's fast. No food or beverage is allowed for three hours after breakfast. Two weeks after the last breakfast, blood tests are made to measure the occurrence of ^55 Fe and ^59 Fe in blood. Furthermore,the totally absorbed amount of ^59 Fe in the body is measured by a so-called total-body counter Via the ratio of ^59 Fe to ^55 Fe in blood samples, also the totally absorbed amount of ^55 Fe can be determined.
Subsequently, a reference solution is administered, consisting of ^59 Fe-labelled iron(II)sulphate and ascorbic acid at two successive breakfasts after a night's fast. No food or beverage is allowed for three hours thereafter. Another two weeks later, a new total-body measurement is made to measure the absorption of the reference dose. The reference solution is administered to make it possible to carry out corrections with regard to differences in the iron absorbing capability of the different test subjects.
The amount of ^59 Fe which is added as ^59 FeCl3 to the wheat-flour, isotope-labels by so-called isotopic exchange all biologically available nonheme iron (=non-blood iron) in the meals analysed, i.e. on the one hand the native iron and, on the other hand, the part of the fortification iron which is dissolved. However, that part of the fortification iron which is not dissolved in the gastrointestinal tract, is not labelled. […]

[2] = humans; literature or background statement; cited from earlier work
[3] = Solubility in artificial gastric environment (0.1M HCl, pH 1, 37° C.); assay type: physicochemical; conditions: for % Solubility 10 min / % Solubility 30 min / % Solubility 60 min: 0.1M HCl, pH=1, 37° C.; for solubility at pH 1 / in 0.1M HCl / gastric environment (in words): pH 1 (0.1M HCl)
Experimental: Here, solubility tests for some commercially used iron(III)phosphates have also been included.
The compound examined in Example 1 was also measured as a reference substance (compound A)

[4] = 40 g buns, 0.2 mg native iron, 2.2 mg fortification iron, ten persons

Row | Compound | absorbability / bioavailability [2] | % Solubility 10 min [3] [%] | % Solubility 30 min [3] [%] | % Solubility 60 min [3] [%] | solubility at pH 1 / in 0.1M HCl / gastric environment (in words) [3] | also measured
1 | O=P([O-])([O-])[O-].[Fe+3] [Common iron(III)phosphate, iron(III)phosphate, reference compound] |  |  |  |  |  | Absorption, Fortification ([1]; 60 g buns, 0.5 mg native iron, 3 mg fortification iron, ten persons): 1.1%
2 | O=S(=O)([O-])[O-].[Fe+2] [iron(II)sulphate] | highest absorbability; also recorded: high bioavailability in the human body |  |  |  |  | 
3 | O=P([O-])([O-])[O-].[Fe+3] [iron(III)orthophosphate] | questionable in respect to the bioavailability of iron |  |  |  |  | 
4 | O=P([O-])([O-])OP(=O)([O-])O.[Fe+2].[Na+] [sodium iron pyrophosphate] | questionable in respect to the bioavailability of iron |  |  |  |  | 
5 | Fe3 H8 (NH4)(PO4)6 .multidot.6H2 O [Compound A] |  | 86 | 100 | 100 |  | Relative bioavailability 55Fe/59Fe [1, 4]: 0.63 ± 0.04; Absorption, Fortification [1, 4]: 3.3%; bioavailability (in words) ([1]; humans): far better bioavailability than both the commercial fortifying agent which is to date most frequently used, i.e. iron powder, and the known commercial fortifying agent which, in structural respect, is its closest relation, i.e. common iron(III)phosphate
6 | Fe3 H8 K(PO4)6 .multidot.6H2 O [Compound E] |  | 5 | 39 | 72 | low initial solubility but reached, after some time, relatively good values | 
7 | Fe5 H8 Na4 (PO4)9 .multidot.10H2 O [Compound C] |  | 70 | 93 | 100 | approximately the same good solubility properties as the ammonium-containing compound A | 
8 | FeH2 Na(PO4)2 .multidot.0.5H2 O [Compound D] |  | 61 | 92 | 100 | approximately the same good solubility properties as the ammonium-containing compound A | 
9 | FeH5 Na(PO4)3 .multidot.H2 O [Compound B] |  | 82 | 97 | 100 | approximately the same good solubility properties as the ammonium-containing compound A | 
